In PubChem BioAssay AID1963826 (Molecular Pharmacology Branch, DTP, NCI, 2024):

System: 926638-142-R-J1-PDC complex spheroid viability
Assay: Anticancer human tumor 926638-142-R-J1-PDC patient-derived endometrial carcinoma cell line growth inhibition [POLQ]
Conditions: for IC50: curve of first compound; for viability, T/C: stronger effect = lower value
Procedure, shortened: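 Three-cell-type spheroids modelling solid tumor plus stroma served as the readout system; POL inhibitors were tested individually and in combination, concentration ranges set by clinical Cmax where known.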

[1] = second compound 0.0316 µM, first compound 0.0316 µM
[2] = second compound 0.0316 µM, first compound 0.1 µM
[3] = second compound 0.0316 µM, first compound 0.316 µM
[4] = second compound 0.0316 µM, first compound 1 µM
[5] = second compound 0.0316 µM, first compound 3.16 µM
[6] = second compound 0.0316 µM, first compound 10 µM
[7] = second compound 0.1 µM, first compound 0.0316 µM
[8] = second compound 0.1 µM, first compound 0.1 µM
[9] = second compound 0.1 µM, first compound 0.316 µM
[10] = second compound 0.1 µM, first compound 1 µM
[11] = second compound 0.1 µM, first compound 3.16 µM
[12] = second compound 0.1 µM, first compound 10 µM
[13] = second compound 0.316 µM, first compound 0.0316 µM
[14] = second compound 0.316 µM, first compound 0.1 µM
[15] = second compound 0.316 µM, first compound 0.316 µM
[16] = second compound 0.316 µM, first compound 1 µM
[17] = second compound 0.316 µM, first compound 3.16 µM
[18] = second compound 0.316 µM, first compound 10 µM
[19] = second compound 1 µM, first compound 0.0316 µM
[20] = second compound 1 µM, first compound 0.1 µM
[21] = second compound 1 µM, first compound 0.316 µM
[22] = second compound 1 µM, first compound 1 µM
[23] = second compound 1 µM, first compound 3.16 µM
[24] = second compound 1 µM, first compound 10 µM
[25] = second compound 3.16 µM, first compound 0.0316 µM
[26] = second compound 3.16 µM, first compound 0.1 µM
[27] = second compound 3.16 µM, first compound 0.316 µM
[28] = second compound 3.16 µM, first compound 1 µM
[29] = second compound 3.16 µM, first compound 3.16 µM
[30] = second compound 3.16 µM, first compound 10 µM
[31] = second compound 10 µM, first compound 0.0316 µM
[32] = second compound 10 µM, first compound 0.1 µM
[33] = second compound 10 µM, first compound 0.316 µM
[34] = second compound 10 µM, first compound 1 µM
[35] = second compound 10 µM, first compound 3.16 µM
[36] = second compound 10 µM, first compound 10 µM
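Also: spheroids exposed to drugs for one week before readout.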
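For viability, T/C in this document: percent viability relative to DMSO vehicle control wells set as 100%.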

CCc1cc2c(N3CCc4c(cc(Cn5ccnc5)cc4-c4cn(C)nc4C(F)(F)F)C3=O)ccnc2c(OC)n1 + COC1C(OC(N)=O)C(O)C(Oc2ccc3c(O)c(NC(=O)c4ccc(O)c(CC=C(C)C)c4)c(=O)oc3c2C)OC1(C)C
IC50 (second compound 0.0316 µM): 0.242 µM | IC50 (second compound 0.1 µM): 0.382 µM | IC50 (second compound 0.316 µM): 0.332 µM | IC50 (second compound 1 µM): 0.258 µM | IC50 (second compound 3.16 µM): 0.225 µM | IC50 (second compound 10 µM): 0.299 µM | viability, T/C [1]: 81.8% | viability, T/C [2]: 60.3% | viability, T/C [3]: 46.7% | viability, T/C [4]: 38.5% | viability, T/C [5]: 28% | viability, T/C [6]: 25.9% | viability, T/C [7]: 81.9% | viability, T/C [8]: 63.8% | viability, T/C [9]: 54.2% | viability, T/C [10]: 40.9% | viability, T/C [11]: 25.8% | viability, T/C [12]: 22.7% | viability, T/C [13]: 77.7% | viability, T/C [14]: 57.7% | viability, T/C [15]: 52.6% | viability, T/C [16]: 43% | viability, T/C [17]: 28.6% | viability, T/C [18]: 26.6% | viability, T/C [19]: 91.7% | viability, T/C [20]: 60.2% | viability, T/C [21]: 46.5% | viability, T/C [22]: 45% | viability, T/C [23]: 22.5% | viability, T/C [24]: 26.1% | viability, T/C [25]: 85.2% | viability, T/C [26]: 54.2% | viability, T/C [27]: 48.5% | viability, T/C [28]: 38.5% | viability, T/C [29]: 28.1% | viability, T/C [30]: 21.1% | viability, T/C [31]: 79.1% | viability, T/C [32]: 64.5% | viability, T/C [33]: 47% | viability, T/C [34]: 40.1% | viability, T/C [35]: 32% | viability, T/C [36]: 25.9%

COc1cc2cc(C(=O)CCC(=O)O)sc2cc1OC + COC1C(OC(N)=O)C(O)C(Oc2ccc3c(O)c(NC(=O)c4ccc(O)c(CC=C(C)C)c4)c(=O)oc3c2C)OC1(C)C
IC50 (second compound 0.0316 µM): > 10 µM | IC50 (second compound 0.1 µM): > 10 µM | IC50 (second compound 0.316 µM): > 10 µM | IC50 (second compound 1 µM): > 10 µM | IC50 (second compound 3.16 µM): > 10 µM | IC50 (second compound 10 µM): > 10 µM | viability, T/C [1]: 93.6% | viability, T/C [2]: 98.3% | viability, T/C [3]: 87.9% | viability, T/C [4]: 106% | viability, T/C [5]: 99.6% | viability, T/C [6]: 104% | viability, T/C [7]: 85.9% | viability, T/C [8]: 97.5% | viability, T/C [9]: 98.2% | viability, T/C [10]: 86.4% | viability, T/C [11]: 94.3% | viability, T/C [12]: 101% | viability, T/C [13]: 105% | viability, T/C [14]: 113% | viability, T/C [15]: 88.1% | viability, T/C [16]: 110% | viability, T/C [17]: 91.6% | viability, T/C [18]: 110% | viability, T/C [19]: 86.7% | viability, T/C [20]: 93% | viability, T/C [21]: 94.5% | viability, T/C [22]: 97.9% | viability, T/C [23]: 97.7% | viability, T/C [24]: 111% | viability, T/C [25]: 99.2% | viability, T/C [26]: 101% | viability, T/C [27]: 103% | viability, T/C [28]: 89.3% | viability, T/C [29]: 81.1% | viability, T/C [30]: 75.1% | viability, T/C [31]: 98.4% | viability, T/C [32]: 109% | viability, T/C [33]: 102% | viability, T/C [34]: 106% | viability, T/C [35]: 81.1% | viability, T/C [36]: 99.7%

COc1ccc([C@@H](O)c2cc(-c3ncnc4cc(N5CCOCC5)ccc34)c(F)cc2Cl)nn1 + COC1C(OC(N)=O)C(O)C(Oc2ccc3c(O)c(NC(=O)c4ccc(O)c(CC=C(C)C)c4)c(=O)oc3c2C)OC1(C)C
IC50 (second compound 0.0316 µM): 0.434 µM | IC50 (second compound 0.1 µM): 0.454 µM | IC50 (second compound 0.316 µM): 0.535 µM | IC50 (second compound 1 µM): 0.443 µM | IC50 (second compound 3.16 µM): 0.634 µM | IC50 (second compound 10 µM): 0.468 µM | viability, T/C [1]: 106% | viability, T/C [2]: 77.5% | viability, T/C [3]: 64% | viability, T/C [4]: 28.1% | viability, T/C [5]: 16.5% | viability, T/C [6]: 8.85% | viability, T/C [7]: 109% | viability, T/C [8]: 89% | viability, T/C [9]: 64% | viability, T/C [10]: 24.4% | viability, T/C [11]: 12.6% | viability, T/C [12]: 7.89% | viability, T/C [13]: 106% | viability, T/C [14]: 92.4% | viability, T/C [15]: 64.9% | viability, T/C [16]: 31.9% | viability, T/C [17]: 17.5% | viability, T/C [18]: 9.34% | viability, T/C [19]: 84.7% | viability, T/C [20]: 82.3% | viability, T/C [21]: 57.7% | viability, T/C [22]: 29.1% | viability, T/C [23]: 10.7% | viability, T/C [24]: 9.06% | viability, T/C [25]: 96.4% | viability, T/C [26]: 102% | viability, T/C [27]: 80.4% | viability, T/C [28]: 29.8% | viability, T/C [29]: 11.9% | viability, T/C [30]: 7.51% | viability, T/C [31]: 91.6% | viability, T/C [32]: 88.9% | viability, T/C [33]: 57.8% | viability, T/C [34]: 30.9% | viability, T/C [35]: 14% | viability, T/C [36]: 7.25%

O=C(Nc1ccc(O)c(NS(=O)(=O)c2ccc(F)cc2)c1)c1ccc(-c2ccccc2)cc1 + COC1C(OC(N)=O)C(O)C(Oc2ccc3c(O)c(NC(=O)c4ccc(O)c(CC=C(C)C)c4)c(=O)oc3c2C)OC1(C)C
IC50 (second compound 0.0316 µM): > 10 µM | IC50 (second compound 0.1 µM): > 10 µM | IC50 (second compound 0.316 µM): > 10 µM | IC50 (second compound 1 µM): > 10 µM | IC50 (second compound 3.16 µM): > 10 µM | IC50 (second compound 10 µM): > 10 µM | viability, T/C [1]: 89.2% | viability, T/C [2]: 87.5% | viability, T/C [3]: 109% | viability, T/C [4]: 99.4% | viability, T/C [5]: 103% | viability, T/C [6]: 69.1% | viability, T/C [7]: 91% | viability, T/C [8]: 96.8% | viability, T/C [9]: 98.6% | viability, T/C [10]: 101% | viability, T/C [11]: 94.8% | viability, T/C [12]: 87.3% | viability, T/C [13]: 108% | viability, T/C [14]: 101% | viability, T/C [15]: 82.2% | viability, T/C [16]: 101% | viability, T/C [17]: 94.8% | viability, T/C [18]: 66% | viability, T/C [19]: 90.6% | viability, T/C [20]: 88.4% | viability, T/C [21]: 89.6% | viability, T/C [22]: 98.3% | viability, T/C [23]: 99.9% | viability, T/C [24]: 80.9% | viability, T/C [25]: 108% | viability, T/C [26]: 88.3% | viability, T/C [27]: 94.5% | viability, T/C [28]: 118% | viability, T/C [29]: 94.6% | viability, T/C [30]: 85.7% | viability, T/C [31]: 97.7% | viability, T/C [32]: 103% | viability, T/C [33]: 93.8% | viability, T/C [34]: 94.7% | viability, T/C [35]: 104% | viability, T/C [36]: 69.4%
